Results published in patent US20040224995A1 (University of North Texas Health Science Center at Fort …, priority 2003, published 2004).

Key:
RGC-5 cells [1] = assay: RGC-5 glutamate cytotoxicity; type: cell-based; conditions: dose dependent manner
Description: (§1) The in vitro model used for oxidative cell death was based upon glutamate, hydrogen peroxide, and buthionine sulfoximine (“BSO”) administration to HT-22 mouse hippocampal, C6 rat glioma, and RGC-5 retinal ganglion cell lines. The ease that the above cell lines are cultured is well known in the art of cell culture. Additionally, these cell lines are suitable for screening a various number of compounds described in the present invention.
(§2) Although not wanting to be bound by theory, the toxicity of glutamate in HT-22 (32) and C6 glioma (33) cell lines is mediated through oxidative stress. HT-22 cells lack ionotropic N-methyl-D-aspartate (“NMDA”) glutamate receptors, and the glutamate-induced cell death appears to occur via a slow onset oxidative stress (32,34,35). Glutamate blocks cystine uptake by inhibiting the glutamate/cystine antiporter in both HT-22 (32) and C6 glioma (33) cell lines. […] In some of the experiments, the viability of cells was determined using 2.5 μM calcein AM assay in phosphate-buffered saline (PBS 1×). After 25 minutes of incubation, live cells were distinguished by the presence of intracellular esterase activity, which cleaves the calcein AM dye, producing a bright green fluorescence, as shown in FIG. 22. Viability was measured in Relative Fluorescent Units (“RFU”), and expressed as percentage of vehicle-treated control values. […]

SK—N—SH cells = assay: SK-N-SH H2O2 and serum deprivation insults; type: cell-based, human
Description: Additionally, the effects of pretreatment with PPARγ agonists on H2O2 and serum deprivation toxicities were studied in SK—N—SH cells. After showing that protection in HT-22 cells was insult-type specific, we investigated whether it was also cell-type specific. We used SK—N—SH, a human neuroblastoma cell lines, and tested whether 15d-PGJ2 and troglitazone would protect SK—N—SH against H2O2 and serum deprivation insults. […] Higher concentrations (>10 μM and >20 μM) of 15dPGJ2 and troglitazone, respectively, were toxic to SK—N—SH cells.
The WY-14643, Ciglitazone, Troglitazone, 9-cis retinoic acid, and 15d-PGJ2 compounds were purchased from Biomol (Plymouth Meeting, Pa.). L-165041 and L-783483 were kindly provided by Merck Laboratories. The cell lines used were HT-22, an immortalized mouse hippocampal cell line, and SK—N—SH, a human neuroblastoma cell line. The HT-22 cells were obtained from David Schubert (Salk Institute, San Diego, Calif.). The HT-22 line was originally selected from HT-4 cells based on glutamate sensitivity. HT-4 cells were immortalized from primary hippocampal neurons using a temperature-sensitive SV-40 T antigen (Morimoto and Koshland, 1990). SK—N—SH were obtained from ATCC (Manassas, Va.). HT-22 and SK—N—SH cells were grown to confluence in DMEM and RPMI-1640 media, respectively, and supplemented with 10% charcoal/dextran-treated fetal bovine serum (FBS), and 5 mg/ml gentamycin at 37° C. under 95% air, 5% CO2. HT-22 cells were plated at a density of 50,000 cells/ml (5,000 cells/well), and SK—N—SH were plated at a density of 120,000 to 150,000 cells/ml (12,000 to 15,000 cells/well) in 96-well plates. In most studies, wells were pre-treated with PPAR ligands over a wide dose range at various times prior to being subjected to either glutamate, hydrogen peroxide (H2O2), or serum deprivation insults. In some studies, the insults were applied prior to the addition of the PPAR ligand.
The cell viability assays were conducted about 14 to 24 hours post-insult time, viability of cells was determined using 2.5 μM Calcein AM assay in phosphate-buffered saline (PBS). After 25 minutes of incubation, live cells were distinguished by the presence of intracellular esterase activity, which cleaves the calcein AM dye, producing a bright green fluorescence. Viability was measured in Relative Fluorescent Units (“RFU”), and expressed as percentage of vehicle-treated control values. The calcein assay was designed to produce results that accurately reflect viable cell numbers. At cell concentrations below 10,000 cells per well (96-well plate) a linear relationship between RFU and cell number is achieved (r^2=0.9997, data not shown).

RGC-5 cells [2] = assay: RGC-5 cell viability during BSO exposure; type: cell-based
Description: as §1, §2

HT-22 cells = assay: HT-22 cell viability during BSO exposure; type: cell-based, mouse
Description: as §1, §2

Row | Structure (SMILES) | protection against glutamate toxicity (RGC-5 cells [1]) | concentrations toxic to SK-N-SH cells (SK—N—SH cells) | protection against H2O2 and serum deprivation insults (SK—N—SH cells) | protection against BSO (RGC-5 cells [2]) | protection against BSO (HT-22 cells)
1 | CCCCC/C=C/C=C1/C(=O)C=C[C@@H]1C/C=C\CCCC(=O)O [15d-PGJ2, 15-deoxy-Δ^12,14-PGJ2] | protected | > 10 µM | Neither of the compounds protected | – | –
2 | Cc1c(C)c2c(c(C)c1O)CCC(C)(COc1ccc(CC3SC(=O)NC3=O)cc1)O2 (centres unmarked) [troglitazone] | protected | > 20 µM | Neither of the compounds protected | protected | protected
